# Measurements published in patent US20030158251A1, “Methods, pharmaceutical compositions and articles of manufacture for treating disorders associated with abnormal cell proliferation and apoptosis” (priority 2002, published 2003).
# Where a SMILES comes first, the peptide text is derived from it. The star is where a group is joined. Cbz = O=C(OCc1ccccc1)*
# B1: IL6: interleukin 6, anti-apoptotic agent in M1-t-p53 cells (protein, UniProt P08505 25-211, looked up)
# Interleukin-6: FPTSQVRRGDFTEDTTPNRPVYTTSQVGGLITHVLWEIVEMRKELCNGNSDCMNNDDALAENNLKLPEIQRNDGCYQTGYNQEICLLKISSGLLEYHSYLEYMKNNLKDNKKDKARVLQRDTETLIHIFNQEVKDLHKIVLPTPISNALLTDKLESQKEWLRTKTIQFILKSLEEFLKVTLRSTRQT
# What was measured:
# p53 [1] = experiment: Immunoblot of p53 level in gamma irradiated normal thymocytes; type: cell-based, mouse; settings: for wild-type p53 accumulation: γ-irradiated normal thymocytes, 2 h, 200 μM dicoumarol, 5 μM radicicol or 5 μM geldanamycin
# Method: Cell extracts were prepared after 2 h and apoptosis was determined after 5 h.
# [2] = test system: M1-t-p53 myeloid leukemic cells; experiment: cells
# Method: Cell viability was determined 23 h after culture at 32° C.
# (§1) The cell lines used were: HCT116 human colon carcinoma cells, HCT116 HA-NQO1 over-expressing cells (45), p53 null HCT116 cells (Bunz, F., Dutiaux, A., Lengauer, C., Waldman, T., Zhou, S., Brown, J. P., Sedivy, J. M., Kinzler, K. W. & Vogelstein, B. (1998) Science 282, 1497-1501.), COS 1 monkey kidney cells, normal thymocytes obtained from 2.5 month old Balb/C mice and M1-t-p53 mouse myeloid leukemic cells that express a temperature-sensitive mutant p53 [Val-135] protein (Yonish-Rouach, E., Resnitzky, D., Lotem, J., Sachs, L., Kimchi, A. & Oren, M. (1991) Nature 352, 345-347).
# (§2) The p53 in M1-t-p53 cells behaves like a tumor-suppressing wild-type p53 at 32° C. and like a mutant p53 at 37° C. (24). HCT116 and COS 1 cells were grown in Dulbecco's modified Eagle's medium (DMEM) supplemented with 10% fetal bovine serum (FBS), […] penicillin, and 100 µg/ml streptomycin and cultured at 37° C. in a humidified incubator with 5.6% C02. Normal thymocytes and M1-t-p53 cells were grown in DMEM supplemented with 10% heat inactivated (56° C., 30 min) horse serum and cultured at 37° C. in an incubator with 10% […].
# (§3) Apoptosis in normal thymocytes was induced by gamma irradiation 4 Gy (Co^60 source 0.63 Gy/min) and in M1-t-p53 cells by culture at 32° C. The percentage of apoptotic thymocytes was determined on May-Grünwald-Giemsa-stained cytospin preparations by counting 400 cells 5 hrs post gamma-irradiation. Apoptotic cells were scored by their smaller size, condensed chromatin, and fragmented nuclei compared with non-apoptotic cells. Analysis of DNA fragmentation during apoptosis in thymocytes was performed by DNA agarose gel electophoresis as described (27). Apoptotic M1-t-p53 cells undergo secondary changes including uptake of trypan-blue (28). The percent of viable cells (non apoptotic and not stained with trypan-blue) was determined by counting 400 cells in a hemocytometer after 23 hrs at 32° C.
# (§4) These cells are viable and proliferate at 37° C. when the p53 behaves like a mutant form, but undergo apoptosis at 32° C. when the p53 behaves like wild-type (3).
# p53 [3] = experiment: Immunoblot of p53 level in M1-t-p53 cells; type: cell-based, mouse
# Method: Immunoblot analysis was carried out using Pab 240 monoclonal anti p53 antibody. The blots were then stripped and re-probed with anti I-kappa-B and anti beta-tubulin antibody.
# Immunoblot analysis was carried out using Pab 240 monoclonal anti p53 antibody and hamster anti mouse Bcl-2. FIG. 11a is an immunoblot of cell extracts from M1-t-p53 myeloid leukemic cells cultured for 6h at 32° C. or 37° C. without or with different concentrations of radicicol. Antibodies are indicated at left. FIG. 11b is an immunoblot of cell extracts from cells cultured at 32° C. for 6 or 2 h without (−) or with (+) 1 μM radicicol. Cells were also preincubated for 4 h at 32° C. and then cultured with 1 μM radicicol or 1 μM geldanamycin (geldan.) for 2 h (2 h*).
# as §1, §2
# (§5) Cell extracts were prepared by lysis of PBS-washed cells in RIPA lysis buffer [150 mM NaCl, 1% NP-40 (vol/vol), 0.5% AB-deoxycholate (DOC vol/vol), 0.1% SDS (vol/vol), 50 mM Tris-Hcl pH 8, 1 mM dithiotireitol (DTT) and 1 micogram/ml each of leupeptin, aprotinin, pepstatin (Sigma cocktail)]. The insoluble pellet was discarded and protein concentration was determined using Bradford reagent (BioRad). Equal amounts of protein were mixed with Laemmli sample buffer (4% SDS, 20% glycerol, 10% 2-mercaptoeftanol and 0.125M Tris-Hcl), heated at 95° C. for 5 min and loaded on an 8% polyacrylamide-SDS gel. Following electophoresis, proteins were transferred to cellulose nitrate 0.45 micrometer membranes (Schleicher & Schuell, Dassel, Germany). Loading equivalence and transfer efficiency were monitored by Ponceau S staining and the membranes were then incubated with appropriate antibodies to proteins of interest followed by horse-radish peroxidase conjugated anti-IgG antibodies. Signals were developed using Super Signal (Pierce Poxkford, USA) at 20° C. for 5 min and the membranes were then exposed to X-ray film (Fuji Tokyo, Japan) for an appropriate time and developed. Membranes were stripped using 50 mM citric acid before using a different primary antibody. The antibodies used were; Monoclonal anti human p53 (Pab 1801) (26), monoclonal anti mouse and human p53 (Pab240), monoclonal anti I-kappa-B (Santa Cruz Biotechnology, Santa Cruz, Calif., USA), monoclonal anti beta-tubulin and anti HA (Sigma Chemical, St. Louis, Mo.).
# as §4
# Because interleukin 6 (IL-6) and the calcium mobilizing compound thapsigargin (TG) are known to be efficient anti-apoptotic agents in M1-t-p53 cells (3, 31), the effect of these compounds on p53 stability was also investigated. […] (FIG. 6a).
# p53 [4] = experiment: Immunoblot of p53 accumulation in 7-M12 myeloid leukemic cells; type: cell-based; settings: 7-M12 cells; for accumulation of p53 following γ-irradiation or doxorubicin treatment: 2 h, 100 μM dicoumarol or 5 μM radicicol
# Method: Immunoblot analysis was carried out using PAb 240 monoclonal anti p53 antibody and rabbit anti IκB FIG. 13a is an immunoblot of extracts from 7-M12 cells which were either not treated (none), γ-irradiated at 0.4 Gy or treated with 2.1 μM doxorubicin (Dox.). […] Cell extracts were prepared after 2 h and apoptosis was determined after 5 h.
# thymocytes = experiment: Dexamethasone induced apoptosis in thymocytes; type: cell-based, mouse; settings: for apoptotic cells: dexamethasone treated thymocytes, from 42±3% without inhibitor
# Text: Accumulation of p53 in γ-irradiated or doxorubicin treated 7-M12 myeloid leukemic cells (28) induces expression of mdm2 and waf-1.
# p53 [5] = experiment: Immunoblot of p53 level in HCT116 cells treated with dicoumarol; type: cell-based, human; settings: for p53 level: HCT116 cells, 400 micromolar dicoumarol; for accumulation of p53 upon γ-irradiation: HCT116 γ-irradiated at 6 Gy, 4 hrs
# Method: Protein levels of each lane probed were calibrated by probing with monoclonal anti beta-tubulin antibody. Dic—Dicoumarol.
# as §5
# Blots were stripped and re-probed with monoclonal anti beta-tubulin antibody as a control for equal protein loading in each lane.
# Since it is known that irradiation cause accumulation of p53 within cells, an additional event was conducted on irradiated cells. […] As expected, p53 accumulated upon γ-irradiation (compare FIG. 1b lanes 1 and 2).
# p53 [6] = experiment: Immunoblot of p53 level in COS 1 cells expressing SV40 large T antigen; type: cell-based, monkey; settings: COS 1 cells gamma irradiated at 6 Gy, up to 400 micromolar, 4 hrs
# Method: Cell extracts were prepared by lysis of PBS-washed cells in RIPA lysis buffer [150 mM NaCl, 1% NP-40 (vol/vol), 0.5% AB-deoxycholate (DOC vol/vol), 0.1% SDS (vol/vol), 50 mM Tris-Hcl pH 8, 1 mM dithiotireitol (DTT) and 1 micogram/ml each of leupeptin, aprotinin, pepstatin (Sigma cocktail)]. The insoluble pellet was discarded and protein concentration was determined using Bradford reagent (BioRad). Equal amounts of protein were mixed with Laemmli sample buffer (4% SDS, 20% glycerol, 10% 2-mercaptoeftanol and 0.125M Tris-Hcl), heated at 95° C. for 5 min and loaded on an 8% polyacrylamide-SDS gel. Following electophoresis, proteins were transferred to cellulose nitrate 0.45 micrometer membranes (Schleicher & Schuell, Dassel, Germany). Loading equivalence and transfer efficiency were monitored by Ponceau S staining and the membranes were then incubated with appropriate antibodies to proteins of interest followed by horse-radish peroxidase conjugated anti-IgG antibodies. Signals were developed using Super Signal (Pierce Poxkford, USA) at 20° C. for 5 min and the membranes were then exposed to X-ray film (Fuji Tokyo, Japan) for an appropriate time and developed. Membranes were stripped using 50 mM citric acid before using a different primary antibody. […]
# normal thymocytes = experiment: Apoptosis in gamma irradiated normal thymocytes; type: cell-based, mouse
# Text: as §1, §3
# p53 [7] = experiment: Dicoumarol-induced p53 degradation in transfected p53 null HCT116 cells; type: cell-based, human; settings: 5 h
# Method: Antibodies used to probe and reprobe the blots are indicated at the left. Stripping and reprobing was as for FIGS. 8 and 9.
# Transfection: Cells were seeded at 60% confluence in 6-well plates 16 h before transfection with the desired plasmids. Transfections were carried out by the calcium phosphate method followed by a 10% glycerol shock for 30 seconds, 7 h post transfection. The exact amount of plasmid used in each experiment is indicated in the corresponding figure legend. Whenever needed an empty vector was used to maintain a constant amount of 5 μg total DNA in each transfection mix. Cell extracts were generally prepared 24 h after transfection.
# as §5, with “The antibodies used were; Monoclonal anti human p53 (Pab 1801) (26), monoclonal anti mouse and human p53 (Pab240), monoclonal anti I-kappa-B (Santa Cruz Biotechnology, Santa Cruz, Calif., USA), monoclonal anti beta-tubulin and anti HA (Sigma Chemical, St. Louis, Mo.).” left out
# p53 [8] = experiment: Proteasome inhibitor block of dicoumarol-induced p53 elimination in HCT116 cells; type: cell-based, human; settings: HCT116, 4 hrs with dicoumarol; 100 micromolar MG 132 or 40 micromolar lactacystin
# Method: FIGS. 2a-b illustrate that proteasomal degradation is responsible for the dicoumarol-induced p53 decrease in cells. […] Immunoblots were carried out as in FIG. 1.
# as §5, with “Signals were developed using Super Signal (Pierce Poxkford, USA) at 20° C. for 5 min and the membranes were then exposed to X-ray film (Fuji Tokyo, Japan) for an appropriate time and developed. Membranes were stripped using 50 mM citric acid before using a different primary antibody. The antibodies used were; Monoclonal anti human p53 (Pab 1801) (26), monoclonal anti mouse and human p53 (Pab240), monoclonal anti I-kappa-B (Santa Cruz Biotechnology, Santa Cruz, Calif., USA), monoclonal anti beta-tubulin and anti HA (Sigma Chemical, St. Louis, Mo.).” left out
# It is well documented that p53 accumulation is determined by the rate of its proteasomal degradation (reviewed in refs. 1,2).
# [9] = Mus musculus, 23 h, read-out: cell viability
# [10] = 32° C., 6 hrs, 10 nanomolar TG or 50 ng/ml IL-6
molecule,measurement,setting,value
C[C@@H]1C[C@H]2O[C@@H]2/C=C\C=C\C(=O)Cc2c(Cl)c(O)cc(O)c2C(=O)O1 [radicicol],wild-type p53 accumulation,p53 [1],only a weak inhibition
same,suppression of wild-type p53 induced apoptosis,"[2]; M1-t-p53 cells cultured at 32° C., 23 h",strongly suppressed
same,viability at 0.1 µM,[2]; [9],90 ± 4%
same,p53 level,"p53 [3]; 32° C., 2 h, 1 μM, also after 4 h preincubation at 32° C.",decrease in p53 level
same,level of p53 in its wild-type form,"p53 [3]; 32° C., 6 h incubation",strong decrease in the level of p53
same,level of p53 in its mutant form,"p53 [3]; 37° C., 6 h incubation",strong decrease in the level of p53
same,level of Bcl-2,"p53 [3]; 6 h incubation, same conditions",no change
same,inhibition of p53 accumulation relative to dicoumarol,p53 [4]; 5 μM radicicol versus 100 μM dicoumarol,stronger effect
same,accumulation of p53 following γ-irradiation or doxorubicin treatment,p53 [4],inhibited
same,apoptotic cells,thymocytes,5±2%
same,suppression of dexamethasone induced apoptosis,thymocytes; thymocytes,strongly suppressed
"O=c1oc2ccccc2c(O)c1Cc1c(O)c2ccccc2oc1=O [dicoumarol, 13-3′-methylene bis (4-hydroxycoumarin)]",level of beta-tubulin,"p53 [5]; HCT116, same conditions as the p53 blots (specificity control)",unaffected
same,p53 level,p53 [5]; 90 min,significant reduction in p53 level
same,p53 level,p53 [5]; 180 min,almost complete elimination of p53
same,accumulation of p53 upon γ-irradiation,p53 [5]; 200 micromolar,reduced
same,accumulation of p53 upon γ-irradiation,p53 [5]; 400 micromolar,further reduced
same,p53 level,p53 [6],not reduced
same,induction of apoptosis (morphology and DNA fragmentation),"normal thymocytes; 4 Gy gamma irradiated thymocytes, 100 and 200 micromolar, 5 hrs, dose dependent",inhibited induction of apoptosis
same,inhibition of apoptosis,"normal thymocytes; 4 Gy gamma irradiated thymocytes, 200 micromolar",Complete inhibition of apoptosis
same,induction of apoptosis,"normal thymocytes; γ-irradiated normal thymocytes, 5 h, 200 μM dicoumarol or 5 μM hsp90 inhibitor",completely inhibited
same,level of p53,"p53 [1]; 4 Gy gamma irradiated thymocytes, 100 and 200 micromolar, 5 hrs",decrease in the level of p53
same,wild-type p53 accumulation,p53 [1],completely inhibited
same,cell survival compared to cells without dicoumarol,"[2]; M1-t-p53 cells, 32° C., 23 hrs, 75 or 100 micromolar",increase in cell survival
same,viability at 75 µM,"[2]; Mus musculus, read-out: cell viability",52 ± 4%
same,level of I-kappa-B,"p53 [3]; 32° C., 6 hrs, 100 micromolar",did not affect
same,p53 level,"p53 [3]; 32° C., 16 hrs, 75 or 100 micromolar dicoumarol",reduced
same,degradation of I-kappa-B or beta-tubulin,"p53 [3]; 37° C., 6 hrs, 100 micromolar",not of I-kappa-B or beta-tubulin
same,degradation of mutant p53,"p53 [3]; 37° C., 6 hrs, 100 micromolar",induce degradation of p53
same,dicoumarol induced p53 degradation,"p53 [7]; p53 null HCT116 co-transfected with p53 and LT, 300 μM",resistant to dicoumarol induced p53 degradation
same,dicoumarol induced p53 degradation,"p53 [7]; p53 null HCT116 transfected only with p53, 300 μM",sensitive to dicoumarol induced p53 degradation
same,levels of Mdm-2 and LT,"p53 [7]; transfected p53 null HCT116, 300 μM",not affected
same,accumulation of p53 following γ-irradiation or doxorubicin treatment,p53 [4],inhibited
"C/C=C(/C)C(=O)O[C@H]1C(C)=C2[C@H]([C@@H]1OC(=O)CCCCCCC)[C@@](C)(OC(C)=O)C[C@H](OC(=O)CCC)[C@@]1(O)[C@H]2OC(=O)[C@@]1(C)O [TG, thapsigargin]",p53 level,p53 [3]; [10],did not cause a reduction in p53 level
CC(=O)N[C@@H](CSC(=O)[C@]1([C@@H](O)C(C)C)NC(=O)[C@H](C)[C@@H]1O)C(=O)O [lactacystin],block of dicoumarol-induced p53 elimination,p53 [8],completely blocked
CC(C)C[C@@H](C=O)NC(=O)[C@H](CC(C)C)NC(=O)[C@H](CC(C)C)NC(=O)OCc1ccccc1 [MG132] (Cbz-Leu-Leu-Leu-aldehyde),block of dicoumarol-induced p53 elimination,p53 [8],completely blocked
COC1=C2C[C@@H](C)C[C@H](OC)[C@H](O)[C@@H](C)/C=C(\C)[C@H](OC(N)=O)[C@@H](OC)/C=C\C=C(/C)C(=O)NC(=CC1=O)C2=O [geldanamycin],viability at 0.1 µM,[2]; [9],90 ± 4%
same,apoptotic cells,thymocytes,5±2%
B1,p53 level,p53 [3]; [10],did not cause a reduction in p53 level
